A value given as a limit tells only on which side of the number the result lay.

Common to all, as to type: in vivo
One assay deals with Helicoverpa armigera. The assay is described as follows: Pesticidal test against Helicoverpa armigera (cabbage leaf disk dip). Conditions: foliar, 72 h, 2-stage larvae, examined after 3 days, 25° C., read-out: pesticidal rate; for pest or weed control at 1 ppm: concentration 1 ppm. The procedure: Pesticidal Test against Helicoverpa armigera A cabbage leaf disk was immersed for 30 seconds in a chemical solution in which a test compound had been prepared at a predetermined concentration, and air-dried. The leaf disk was put into a 6-hole plastic cup having a filter paper laid on the bottom thereof, and 2-stage larvae of Helicoverpa armigera were released with one insect being released per hole. They were left to stand in a thermostatic chamber at 25° C., and the numbers of the living pests and the dead pests were examined after 3 days. The test was carried out with five larvae per group in two replicates. Further, the above compound (A) was used as a comparative compound.

Another assay deals with Adoxophyes honmai. The assay is described as follows: Pesticidal test against Adoxophyes honmai (artificial feed dip). The conditions noted are these: 144 h, 2-stage larvae, examined after 6 days, 25° C., read-out: pesticidal rate; for pest or weed control at 1 ppm: concentration 1 ppm; for pest or weed control at 10 ppm: concentration 10 ppm. The procedure:
(§1) Pesticidal Test against Adoxophyes honmai A thinly sliced artificial feed was immersed for 30 seconds in a chemical solution in which a test compound had been prepared at a predetermined concentration, and air-dried, and then put into a 7 cm polyethylene cup having a filter paper laid on the bottom thereof, and 2-stage larvae of Adoxophyes honmai were released. They were left to stand in a thermostatic chamber at 25° C., and the numbers of the living pests and the dead pests were examined after 6 days. The test was carried out with five larvae per group in two replicates. Further, the above compound (A) was used as a comparative compound.

For a further assay, the system named is Spodoptera litura. The assay is described as follows: Pesticidal test against Spodoptera litura (cabbage leaf dip). The conditions noted are these: foliar, 144 h, 2-stage larvae, examined after 6 days, 25° C., read-out: pesticidal rate; for pest or weed control at 1 ppm: concentration 1 ppm. A digest of the protocol: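 Cabbage leaf pieces dipped 30 seconds in compound solution at a predetermined concentration and air-dried, then offered to second-stage larvae, five per group in two replicates. Held at 25° C. Living and dead larvae counted after 6 days.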

Another assay relates to Plutella xylostella. The assay is described as follows: Pesticidal test against Plutella xylostella (cabbage leaf dip). Conditions: foliar, 144 h, 2-stage larvae, examined after 6 days, 25° C., read-out: pesticidal rate; for pest or weed control at 1 ppm: concentration 1 ppm. The method, boiled down: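 Second-stage larvae (5 per group, two replicates) were released onto air-dried cabbage leaf discs that had been immersed for 30 seconds in compound solution at a set concentration. Mortality was scored after 6 days at 25° C.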

A further assay relates to Laodelphax striatellus. The experiment in a line: Pesticidal test against Laodelphax striatellus (rice seedling spray). Conditions: 144 h, concentration 100 ppm, 3-stage larvae, examined after 6 days, 25° C., read-out: pesticidal rate. The method, boiled down:
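Rice seedlings sprayed with 2.5 ml acetone solution of compound at a predetermined concentration, air-dried, then infested with third-stage Laodelphax striatellus larvae in capped water-containing tubes at 25 °C. Living and dead insects counted after 6 days; ten larvae per group, two replicates.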

A further assay concerns Choristoneura magnanima. The assay is described as follows: Pesticidal test against Choristoneura magnanima (artificial feed dip). The conditions noted are these: 144 h, 2-stage larvae, examined after 6 days, 25° C., read-out: pesticidal rate; for pest or weed control at 1 ppm: concentration 1 ppm; for pest or weed control at 10 ppm: concentration 10 ppm. The procedure:
as §1, with “Choristoneura magnanima” for “Adoxophyes honmai”

For another assay, the system named is Musca domestica. The experiment in a line: Pesticidal test against Musca domestica (petri dish dry film). The conditions noted are these: 24 h, concentration 100 ppm, female adults, examined after 1 day, 25° C., read-out: pesticidal rate. A digest of the protocol:
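Female adult houseflies were confined at 25° C in capped 9 cm petri dishes coated with an air-dried film from 1 ml acetone solution of compound (predetermined concentration). Mortality was scored 1 day later, two replicates of five per group.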

Regarding `O=C(Nc1c(I)cc(C(F)(C(F)(F)F)C(F)(F)C(F)(F)F)cc1I)c1cccc(NC(=O)c2c(F)cccc2F)c1` (centres unmarked) [6-80], the pest or weed control at 1 ppm in the assay on Helicoverpa armigera, in the assay on Adoxophyes honmai, in the assay on Spodoptera litura, in the assay on Plutella xylostella and in the assay on Choristoneura magnanima was no less than 70% in each case. For the same molecule, the pest or weed control at 100 ppm with Laodelphax striatellus was no less than 70%.

As to `O=C(Nc1c(I)cc(C(F)(C(F)(F)F)C(F)(F)C(F)(F)F)cc1I)c1cccc(NC(=O)c2cccnc2Cl)c1` (centres unmarked) [6-90], the pest or weed control at 1 ppm with Helicoverpa armigera, with Adoxophyes honmai, with Spodoptera litura, with Plutella xylostella and with Choristoneura magnanima was no less than 70% each time. The pest or weed control at 100 ppm with Laodelphax striatellus is no less than 70%.

In the case of `O=C(Nc1cccc(C(=O)Nc2c(Br)cc(C(F)(C(F)(F)F)C(F)(F)F)cc2C(F)(F)F)c1)c1ccc(F)cc1` [6-271], the pest or weed control at 1 ppm in the assay with Helicoverpa armigera, in the assay on Spodoptera litura, in the assay with Plutella xylostella and with Choristoneura magnanima was no less than 70% in each case. Further, in the assay on Adoxophyes honmai, the pest or weed control at 10 ppm was no less than 70%. For the same molecule, the pest or weed control at 100 ppm with Laodelphax striatellus was no less than 70%.

For `O=C(Nc1cccc(C(=O)Nc2c(Br)cc(C(F)(C(F)(F)F)C(F)(F)C(F)(F)F)cc2C(F)(F)F)c1)c1ccc(F)cc1` (centres unmarked) [6-349], the pest or weed control at 1 ppm in the assay on Helicoverpa armigera, in the assay with Adoxophyes honmai, in the assay on Spodoptera litura, in the assay with Plutella xylostella and in the assay with Choristoneura magnanima was no less than 70% in each case.

Consider `N#Cc1cccc(C(=O)Nc2cccc(C(=O)Nc3c(Br)cc(C(F)(C(F)(F)F)C(F)(F)C(F)(F)F)cc3C(F)(F)F)c2)c1` (centres unmarked) [6-366], for which the pest or weed control at 1 ppm with Helicoverpa armigera, in the assay on Adoxophyes honmai, in the assay on Spodoptera litura, in the assay on Plutella xylostella and in the assay with Choristoneura magnanima was no less than 70% each time. In addition, the pest or weed control at 100 ppm in the assay with Musca domestica was no less than 70%.

Regarding `O=C(Nc1c(I)cc(C(F)(C(F)(F)F)C(F)(F)F)cc1C(F)(F)F)c1cccc(NC(=O)c2c(F)cccc2F)c1` [6-446], the pest or weed control at 1 ppm with Helicoverpa armigera, in the assay on Adoxophyes honmai, in the assay on Spodoptera litura and in the assay on Plutella xylostella was no less than 70% each time. In the assay on Laodelphax striatellus, the pest or weed control at 100 ppm was no less than 70%. For the same molecule, in the assay on Choristoneura magnanima, the pest or weed control at 10 ppm is no less than 70%.

In the case of `O=C(Nc1cccc(C(=O)Nc2c(Br)cc(C(F)(C(F)(F)F)C(F)(F)F)cc2Br)c1F)c1ccccc1` [6-1104], the pest or weed control at 1 ppm with Helicoverpa armigera, in the assay with Spodoptera litura, with Plutella xylostella and in the assay with Choristoneura magnanima was no less than 70% throughout. For the same molecule, the pest or weed control at 10 ppm with Adoxophyes honmai was no less than 70%. Moreover, the pest or weed control at 100 ppm in the assay with Laodelphax striatellus is no less than 70%.

For `O=C(Nc1cccc(C(=O)Nc2c(I)cc(C(F)(C(F)(F)F)C(F)(F)F)cc2I)c1F)c1ccc(F)cc1` [6-1263], the pest or weed control at 1 ppm with Helicoverpa armigera, with Adoxophyes honmai, in the assay with Spodoptera litura, in the assay on Plutella xylostella and in the assay with Choristoneura magnanima was no less than 70% each time. The pest or weed control at 100 ppm in the assay on Laodelphax striatellus is no less than 70%.

Take `O=C(Nc1cccc(C(=O)Nc2c(Br)cc(C(F)(C(F)(F)F)C(F)(F)F)cc2C(F)(F)F)c1F)c1ccccc1` [6-1574]: the pest or weed control at 1 ppm with Helicoverpa armigera, with Adoxophyes honmai, in the assay on Spodoptera litura, with Plutella xylostella and in the assay on Choristoneura magnanima was no less than 70% throughout. Further, the pest or weed control at 100 ppm in the assay on Laodelphax striatellus was no less than 70%.

Regarding `O=C(Nc1cccc(C(=O)Nc2c(Br)cc(C(F)(C(F)(F)F)C(F)(F)C(F)(F)F)cc2C(F)(F)F)c1F)c1cccc(F)c1` (centres unmarked) [6-1654], the pest or weed control at 1 ppm with Helicoverpa armigera, in the assay with Adoxophyes honmai, in the assay with Spodoptera litura, with Plutella xylostella and with Choristoneura magnanima was no less than 70% in each case. Further, the pest or weed control at 100 ppm with Laodelphax striatellus was no less than 70%.

For the molecule `O=C(Nc1cccc(C(=O)Nc2c(Br)cc(C(F)(C(F)(F)F)C(F)(F)C(F)(F)F)cc2C(F)(F)F)c1F)c1ccc(F)cc1` (centres unmarked) [6-1655], the pest or weed control at 1 ppm in the assay on Helicoverpa armigera, in the assay with Adoxophyes honmai, in the assay with Spodoptera litura, with Plutella xylostella and in the assay with Choristoneura magnanima was no less than 70% each time. In addition, in the assay on Laodelphax striatellus, the pest or weed control at 100 ppm is no less than 70%.

Consider `O=C(Nc1c(Br)cc(C(F)(C(F)(F)F)C(F)(F)C(F)(F)F)cc1C(F)(F)F)c1cccc(NC(=O)c2c(F)cccc2F)c1F` (centres unmarked) [6-1674], for which the pest or weed control at 1 ppm in the assay on Helicoverpa armigera, in the assay on Adoxophyes honmai, in the assay on Spodoptera litura, in the assay with Plutella xylostella and in the assay on Choristoneura magnanima was no less than 70% in each case. In addition, the pest or weed control at 100 ppm in the assay with Laodelphax striatellus is no less than 70%.

For the molecule `CN(C(=O)c1ccc(C#N)cc1)c1cccc(C(=O)Nc2c(I)cc(C(F)(C(F)(F)F)C(F)(F)C(F)(F)F)cc2C(F)(F)F)c1` (centres unmarked) [7-523], the pest or weed control at 1 ppm with Helicoverpa armigera, with Spodoptera litura, in the assay with Plutella xylostella and in the assay on Choristoneura magnanima was no less than 70% throughout. Besides, the pest or weed control at 10 ppm in the assay on Adoxophyes honmai was no less than 70%.

For the molecule `CN(C(=O)c1ccccc1)c1cccc(C(=O)Nc2c(I)cc(C(F)(C(F)(F)F)C(F)(F)F)cc2I)c1F` [7-1260], the pest or weed control at 10 ppm in the assay with Adoxophyes honmai is no less than 70%. Further, the pest or weed control at 1 ppm in the assay with Spodoptera litura, with Plutella xylostella and with Choristoneura magnanima was no less than 70% in each case. For the same molecule, in the assay on Laodelphax striatellus, the pest or weed control at 100 ppm is no less than 70%.

In the case of `CN(C(=O)c1ccc(F)cc1)c1cccc(C(=O)Nc2c(I)cc(C(F)(C(F)(F)F)C(F)(F)F)cc2I)c1F` [7-1263], the pest or weed control at 1 ppm in the assay with Helicoverpa armigera, with Spodoptera litura, in the assay on Plutella xylostella and in the assay on Choristoneura magnanima was no less than 70% each time. Besides, in the assay with Adoxophyes honmai, the pest or weed control at 10 ppm was no less than 70%. The pest or weed control at 100 ppm in the assay with Laodelphax striatellus is no less than 70%.

Consider `CN(C(=O)c1cc(C#N)cc(C#N)c1)c1cccc(C(=O)Nc2c(Br)cc(C(F)(C(F)(F)F)C(F)(F)F)cc2C(F)(F)F)c1F` [7-1605], for which the pest or weed control at 1 ppm with Helicoverpa armigera, in the assay on Adoxophyes honmai, in the assay with Spodoptera litura, in the assay with Plutella xylostella and in the assay with Choristoneura magnanima was no less than 70% each time. Further, the pest or weed control at 100 ppm in the assay on Laodelphax striatellus was no less than 70%.

As to `CN(C(=O)c1ccc(F)nc1)c1cccc(C(=O)Nc2c(Br)cc(C(F)(C(F)(F)F)C(F)(F)F)cc2C(F)(F)F)c1F` [7-1616], the pest or weed control at 1 ppm with Helicoverpa armigera, in the assay with Spodoptera litura, with Plutella xylostella and with Choristoneura magnanima was no less than 70% throughout. In the assay with Adoxophyes honmai, the pest or weed control at 10 ppm was no less than 70%. Moreover, the pest or weed control at 100 ppm with Laodelphax striatellus was no less than 70%.

As for `COc1cc(C(F)(C(F)(F)F)C(F)(F)F)cc(C)c1NC(=O)c1cccc(N(C)C(=O)c2ccccc2)c1` [compound (A), reference compound], the pest or weed control at 10 ppm in the assay on Helicoverpa armigera (concentration 10 ppm), with Adoxophyes honmai, with Spodoptera litura (concentration 10 ppm), in the assay with Plutella xylostella (concentration 10 ppm) and in the assay on Choristoneura magnanima was no more than 50% each time.

(Values after patent publication US8686044B2, “Amide derivative, pest control agent containing the amide derivative, and use of the amide derivative” (Mitsui Chemicals Agro, Inc., priority 2008, dated 2014).)
